Experimental data reported in US20130309202A1, “Methods for Improving Liver Function” (The Ohio State University, priority 2012, published 2013).
Values joined by “and” are separate entries in the source; they are usually repeats but may differ in a detail not shown here. Identical values can stand only once. Like-named read-outs stand apart in the source and are kept apart here. One block for each molecule: values may come before it.

What was measured:
[1] = human, in vivo
[2] = human, in vivo; remark: listed apart in the source
[3] = human, in vivo; remark: listed apart in the source
[4] = biological target: T1, Tocopherol transfer protein (TTP) (Homo sapiens, UniProt P49638); settings: background statement; cited from earlier work
T1 sequence (P49638 1-278): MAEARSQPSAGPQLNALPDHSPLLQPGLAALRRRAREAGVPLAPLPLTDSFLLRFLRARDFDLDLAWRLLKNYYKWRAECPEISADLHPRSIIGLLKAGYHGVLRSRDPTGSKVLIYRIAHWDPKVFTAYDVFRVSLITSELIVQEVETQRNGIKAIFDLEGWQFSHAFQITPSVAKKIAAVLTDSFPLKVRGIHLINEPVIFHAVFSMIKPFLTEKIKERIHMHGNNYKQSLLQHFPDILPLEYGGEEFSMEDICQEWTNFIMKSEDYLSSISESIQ

HMG-CoA reductase = biological target: T2, HMG-CoA reductase (Homo sapiens, UniProt P04035); settings: hepatic enzyme responsible for cholesterol synthesis; background statement; cited from earlier work
T2 sequence (P04035 1-888): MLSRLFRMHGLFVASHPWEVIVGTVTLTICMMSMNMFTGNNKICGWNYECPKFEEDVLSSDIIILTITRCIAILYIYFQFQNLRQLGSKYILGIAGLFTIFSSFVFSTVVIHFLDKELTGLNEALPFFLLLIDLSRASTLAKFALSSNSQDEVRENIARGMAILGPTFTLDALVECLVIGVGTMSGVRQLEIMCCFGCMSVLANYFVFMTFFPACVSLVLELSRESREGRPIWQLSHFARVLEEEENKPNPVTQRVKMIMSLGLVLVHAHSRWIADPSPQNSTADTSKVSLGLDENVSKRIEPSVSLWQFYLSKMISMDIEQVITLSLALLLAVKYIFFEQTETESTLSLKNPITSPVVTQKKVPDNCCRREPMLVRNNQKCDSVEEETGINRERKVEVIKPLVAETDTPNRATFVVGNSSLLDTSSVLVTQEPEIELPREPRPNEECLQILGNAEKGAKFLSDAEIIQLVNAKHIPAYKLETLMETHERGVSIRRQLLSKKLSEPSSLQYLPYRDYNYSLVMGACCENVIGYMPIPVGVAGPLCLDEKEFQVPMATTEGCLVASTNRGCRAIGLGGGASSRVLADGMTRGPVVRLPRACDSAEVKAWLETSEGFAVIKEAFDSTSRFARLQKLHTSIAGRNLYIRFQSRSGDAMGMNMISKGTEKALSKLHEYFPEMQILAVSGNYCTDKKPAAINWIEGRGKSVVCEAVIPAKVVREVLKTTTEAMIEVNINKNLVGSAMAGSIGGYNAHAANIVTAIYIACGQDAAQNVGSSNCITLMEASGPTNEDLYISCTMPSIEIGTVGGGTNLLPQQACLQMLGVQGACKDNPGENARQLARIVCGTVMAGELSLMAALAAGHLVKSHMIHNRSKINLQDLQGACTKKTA

[5] = Skin biopsy vitamin E concentration following oral TE supplementation, Healthy Participants Group; settings: TE 400 mg daily, 12 wk vs baseline
[6] = system: end stage liver disease (ESLD) patients; assay: Model for End-Stage Liver Disease (MELD) score analysis in supplemented patients awaiting liver transplantation; format: in vivo, human
From the text: Vital organs for study included: cardiac muscle acquired from heart transplant recipients with end stage heart failure (TCP n=3, TE n=5); liver from transplant recipients with end-stage liver (TCP n=3, TE n=4); adipose acquired from abdominal adipose tissue of morbidly obese patients undergoing reconstructive plastic surgery (TCP n=4, TE n=5); and brain tissue from recalcitrant epilepsy patients requiring resection (TE n=4). Control brain samples were taken from autopsy participants donated to science and represent vitamin E concentrations of the general population, without dietary TE consumption (n=4). […] TCP gel capsules contained 200 mg of d-alpha-tocopherol. Vitamin E gel capsules were sealed in blister packs. To determine compliance, study participants mailed empty packages back to the clinic every two weeks. Participant supplementation compliance for the study was >90%. Random-effects linear regression was used to estimate the individual slope and intercepts of the MELD score pre- and post-supplementation for each subject. This was performed separately for TCP and TE supplementation groups. Random-effects regression takes into account the variability within participants due to repeated measures and the variability between participants in order to estimate the standard error. Due to the serendipitous nature of the MELD score findings the length of supplementation was not standardized between patients awaiting liver transplantation. The time scale is in days relative to beginning of the patient's vitamin E supplementation. […] The percent change in the slope from pre- to post-supplementation was calculated. Summary statistics are presented for pre- and post-slope and the percent change across TE and TCP supplementation groups. Wilcoxon rank-sum was used to test differences in slope and percent change in slope between TCP and TE. Wilcoxon signed-rank test was used to compare pre- to post-supplementation.

[7] = Brain vitamin E concentration, Surgical Patients Group; settings: for Brain vitamin E concentration, 25th percentile / Brain vitamin E concentration, 50th percentile / Brain vitamin E concentration, 75th percentile / Brain vitamin E concentration, mean: n = 4
[8] = Liver vitamin E concentration, Surgical Patients Group
[9] = Abdominal adipose vitamin E concentration, Surgical Patients Group; settings: for Adipose vitamin E concentration, 25th percentile / Adipose vitamin E concentration, 50th percentile / Adipose vitamin E concentration, 75th percentile / Adipose vitamin E concentration, mean: 400 mg daily oral
[10] = Heart (cardiac muscle) vitamin E concentration, Surgical Patients Group; settings: for Heart vitamin E concentration, 25th percentile / Heart vitamin E concentration, 50th percentile / Heart vitamin E concentration, 75th percentile / Heart vitamin E concentration, mean: 400 mg daily oral
[11] = individual patient, 400 mg daily oral
[12] = TE supplemented, 400 mg daily oral
[13] = TE supplemented, 400 mg daily oral, n = 4

Molecule: d-alpha-tocotrienol [αTE]
- adipose concentration relative to controls [1]: ~10 fold
- Brain vitamin E concentration, 25th percentile [2]: 0.03 nmol/g
- Brain vitamin E concentration, 50th percentile [2]: 0.04 nmol/g
- Brain vitamin E concentration, 75th percentile [2]: 0.05 nmol/g
- Brain vitamin E concentration, mean [2]: 0.04 nmol/g
- concentration in liver tissue relative to that found in adipose [3]: less than 10%
- affinity of TTP to bind and transport, relative to αTCP [4]: 12%
- effect on activity of HMG-CoA reductase (HMG-CoA reductase): suppresses the activity
- effect of oral TE supplementation on skin concentration [5]: significantly elevated

Molecule: Cc1c(C)c2c(c(C)c1O)CC[C@@](C)(CCC[C@H](C)CCC[C@H](C)CCCC(C)C)O2 [TCP, d-alpha-tocopherol]
- participants with a reduction (improvement) in MELD score ([6]; ESLD participants, oral supplementation 400 mg daily): 20%
- MELD score Pre-supplement Intercept ([6]; individual patient awaiting liver transplantation, before supplementation (baseline)): 16.4 (2×) and 15.7 and 16.5 and 16.9
- MELD score Post-supplement Intercept [6, 11]: 14.2 (3×) and 14.0 and 14.4
- MELD score slope % Change (pre vs. post) [6, 11]: 372% and −155% and 1028% and 619% and 598%
- MELD score Post-supplement Slope ([6]; individual patient, 400 mg daily oral, slope multiplied by 10,000, time in days): 483 and −60 and 1139 and 702 and 712
- MELD score Pre-supplement Slope ([6]; individual patient, before supplementation (baseline), slope multiplied by 10,000, time in days): 102 (2×) and 109 and 101 and 98

Molecule: Cc1c(C)c2c(c(C)c1O)CC[C@@](C)(CCC[C@H](C)CCC[C@H](C)CCCC(C)C)O2 [αTCP, d-alpha-tocopherol]
- Brain vitamin E concentration, 25th percentile [2]: 41.1 nmol/g
- Brain vitamin E concentration, 50th percentile [2]: 43.3 nmol/g
- Brain vitamin E concentration, 75th percentile [2]: 60.0 nmol/g
- Brain vitamin E concentration, mean [2]: 50.5 nmol/g

- adipose concentration relative to controls [1]: ~10 fold
- Brain vitamin E concentration, 25th percentile [2]: 0.09 nmol/g
- Brain vitamin E concentration, 50th percentile [2]: 0.15 nmol/g
- Brain vitamin E concentration, 75th percentile [2]: 0.17 nmol/g
- Brain vitamin E concentration, mean [2]: 0.13 nmol/g
- concentration in liver tissue relative to that found in adipose [3]: less than 10%
Molecule: CC(C)=CCC/C(C)=C/CC/C(C)=C/CC[C@]1(C)CCc2cc(O)cc(C)c2O1 [δTE, d-delta-tocotrienol]

Molecule: CC(C)=CCC/C(C)=C/CC/C(C)=C/CC[C@]1(C)CCc2cc(O)c(C)c(C)c2O1 [γTE, d-gamma-tocotrienol]
- Brain vitamin E concentration, 25th percentile ([7]; TCP supplemented): 0.03 nmol/g
- Brain vitamin E concentration, 50th percentile ([7]; TCP supplemented): 0.05 nmol/g
- Brain vitamin E concentration, 75th percentile ([7]; TCP supplemented): 0.08 nmol/g
- Brain vitamin E concentration, mean ([7]; TCP supplemented): 0.06 nmol/g
- brain concentration, TE supplemented compared with control (cadaveric) brain ([7]; TE 400 mg daily): significantly elevated
- Brain vitamin E concentration, 25th percentile [7, 12]: 0.47 nmol/g
- Brain vitamin E concentration, 50th percentile [7, 12]: 0.70 nmol/g
- Brain vitamin E concentration, 75th percentile [7, 12]: 1.19 nmol/g
- Brain vitamin E concentration, mean [7, 12]: 0.83 nmol/g
- liver concentration, TE supplemented compared with TCP supplemented patients ([8]; 400 mg daily): increased
- Liver vitamin E concentration, 25th percentile [8, 13]: 0.17 nmol/g
- Liver vitamin E concentration, 50th percentile [8, 13]: 0.45 nmol/g
- Liver vitamin E concentration, 75th percentile [8, 13]: 1.1 nmol/g
- Liver vitamin E concentration, mean [8, 13]: 0.61 nmol/g
- Adipose vitamin E concentration, 25th percentile ([9]; TCP supplemented, n = 4): 0.71 nmol/g
- Adipose vitamin E concentration, 50th percentile ([9]; TCP supplemented, n = 4): 1.72 nmol/g
- Adipose vitamin E concentration, 75th percentile ([9]; TCP supplemented, n = 4): 3.21 nmol/g
- Adipose vitamin E concentration, mean ([9]; TCP supplemented, n = 4): 1.96 nmol/g
- adipose concentration relative to controls ([9]; TE supplemented vs controls, P<0.05): ~10 fold
- Adipose vitamin E concentration, 25th percentile ([9]; TE supplemented, n = 5): 12.4 nmol/g
- Adipose vitamin E concentration, 50th percentile ([9]; TE supplemented, n = 5): 17.1 nmol/g
- Adipose vitamin E concentration, 75th percentile ([9]; TE supplemented, n = 5): 23.5 nmol/g
- Adipose vitamin E concentration, mean ([9]; TE supplemented, n = 5): 17.2 nmol/g
- heart muscle level, TE supplemented compared with participants receiving TCP alone ([10]; 400 mg daily): significantly higher
- Heart vitamin E concentration, 25th percentile ([10]; TCP supplemented, n = 3): 0.02 nmol/g
- Heart vitamin E concentration, 50th percentile ([10]; TCP supplemented, n = 3): 0.23 nmol/g
- Heart vitamin E concentration, 75th percentile ([10]; TCP supplemented, n = 3): 0.26 nmol/g
- Heart vitamin E concentration, mean ([10]; TCP supplemented, n = 3): 0.17 nmol/g
- Heart vitamin E concentration, 25th percentile ([10]; TE supplemented, n = 5): 2.07 nmol/g
- Heart vitamin E concentration, 50th percentile ([10]; TE supplemented, n = 5): 6.70 nmol/g
- Heart vitamin E concentration, 75th percentile ([10]; TE supplemented, n = 5): 14.4 nmol/g
- Heart vitamin E concentration, mean ([10]; TE supplemented, n = 5): 8.85 nmol/g
- effect of oral TE supplementation on skin concentration [5]: significantly elevated

- Brain vitamin E concentration, 25th percentile [2]: 0.98 nmol/g
- Brain vitamin E concentration, 50th percentile [2]: 2.51 nmol/g
- Brain vitamin E concentration, 75th percentile [2]: 10.6 nmol/g
- Brain vitamin E concentration, mean [2]: 5.77 nmol/g
Molecule: Cc1c(O)cc2c(c1C)O[C@](C)(CCC[C@H](C)CCC[C@H](C)CCCC(C)C)CC2 [γTCP]
